GI50 data for 22 compounds are collected here from patent US9132130B2, “Purine derivative and antitumor agent using same” (ZENYAKU KOGYO KABUSHIKI KAISHA, priority 2009, dated 2015).

Holding throughout (format): cell-based
Experiment [1] has as its system P388 cells (mouse leukemia cells). Briefly: in vitro antitumor activity test, P388 cells, XTT colorimetry. As to conditions: cultured 72 hours. The essentials: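 Cells from DBA/2 mouse ascites, in RPMI 1640 with 10% FBS and 25 mM HEPES, seeded from a 4×10^4 cells/ml suspension. Equal volume added of compound solutions prepared at 2.0×10^−9 to 2.0×10^−4 M (pre-mixing). After 72 h at 37° C, 5% CO2, growth read by XTT; GI50 (μM) is the concentration giving 50% growth inhibition.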

Experiment [2] deals with B16F10 cells (mouse melanoma [malignant melanoma] cells). Briefly: in vitro antitumor activity test, B16F10 cells, XTT colorimetry. The note with it: B16-F10, cultured 72 hours. The essentials: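 B16F10 mouse melanoma cells were seeded from a 1×10^4 cells/ml suspension and allowed to adhere for 24 h. Compounds in DMSO were diluted in RPMI 1640 with 10% FBS to 2.0×10^−9 to 2.0×10^−4 M and incubated 72 h at 37° C, 5% CO2. XTT colorimetry gave GI50 (μM).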

Experiment [3] concerns WiDr cells (human colon cancer cells). Briefly: in vitro antitumor activity test, WiDr cells, XTT colorimetry. The note with it: cultured 72 hours. The essentials: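 Human colon cancer cells in MEM/10% FBS were seeded 3×10^4 cells/ml and allowed to adhere for 24 h, then exposed to compounds prepared at 2.0×10^−9 to 2.0×10^−4 M in RPMI 1640 for 72 h at 37° C, 5% CO2. Growth was read by XTT colorimetry and GI50 (μM) calculated.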

Experiment [4] concerns A549 cells (human lung cancer cells). In words: in vitro antitumor activity test, A549 cells, XTT colorimetry. As to conditions: cultured 72 hours. The procedure, abridged: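 Cells seeded at 2×10^4 cells/ml in MEM + 10% FBS, 25 mM HEPES, kanamycin, allowed to adhere 24 h, then exposed to compounds (DMSO stocks diluted in RPMI 1640; prepared at 2.0×10^−9 to 2.0×10^−4 M) for 72 h at 37 °C, 5% CO2. Growth inhibition read by XTT colorimetry; GI50 (μM) calculated.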

The test system of experiment [5] is PC-3 cells (human prostate cancer cells). Briefly: in vitro antitumor activity test, PC-3 cells, XTT colorimetry. As to conditions: PC-3 human prostate cancer cells, cultured 72 hours. The procedure, abridged:
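PC-3 human prostate cancer cells, seeded at 2×10^4 cells/ml and allowed to adhere for 24 h, were exposed 72 h at 37° C, 5% CO2 to compound diluted in RPMI 1640 with 10% FBS to 2.0×10^−9 to 2.0×10^−4 M (pre-addition solutions). Growth was measured by XTT colorimetry and GI50 (μM) calculated.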

Some results are limits rather than exact numbers.

As for `COc1ccc(CSc2nc(N3CC=CC3)c3ncn(C)c3n2)cc1[N+](=O)[O-]` [Compound 142, 2-(4-methoxy-3-nitrobenzylsulfanyl)-9-methyl-6-(3-pyrrolin-1-yl)-9H-purine], the GI50 in experiment [1] was 50 nM; in experiment [2], 190 nM; in experiment [3], 1150 nM; in experiment [4] it was 80 nM; in experiment [5] it was 100 nM.
For `CCNc1nc(SCc2ccc(OC)c(F)c2)nc2c1ncn2C` [Compound 91, 6-ethylamino-2-(3-fluoro-4-methoxybenzylsulfanyl)-9-methyl-9H-purine], the GI50 came to 90 nM in experiment [1]; 140 nM in experiment [2]; 90 nM in experiment [3]; 140 nM in experiment [4]; 340 nM in experiment [5].
With `COc1ccc(CSc2nc(-c3c(C)noc3C)c3ncn(C)c3n2)cc1` [Compound 169, 6-(3,5-dimethylisoxazol-4-yl)-2-(4-methoxybenzylsulfanyl)-9-methyl-9H-purine], the GI50 in experiment [1] was less than 40 nM; in experiment [2], 110 nM; in experiment [3], 80 nM; in experiment [4], less than 40 nM; in experiment [5], 70 nM.
For the compound `CCc1nc2c(N3CCOCC3)nc(SCc3ccc(OC)c(C#N)c3)nc2n1CC` [Compound 94, 2-(3-cyano-4-methoxybenzylsulfanyl)-8,9-diethyl-6-morpholino-9H-purine], the GI50 in experiment [1] came out at 80 nM; in experiment [2], 140 nM; in experiment [3], 80 nM; in experiment [4] it was 100 nM; in experiment [5], 110 nM.
Regarding `COc1ccc(CSc2nc(N(C)C)c3ncn(C)c3n2)cc1F` [Compound 86, 6-dimethylamino-2-(3-fluoro-4-methoxybenzylsulfanyl)-9-methyl-9H-purine], the concentration for 50% growth inhibition (GI50) was 30 nM in experiment [1]; 60 nM in experiment [2]; 40 nM in experiment [3]; 50 nM in experiment [4]; 50 nM in experiment [5].
As to `COc1ccc(CSc2nc(N(C)OC)c3ncn(C)c3n2)cc1` [Compound 105, 6-(N-methoxy-N-methylamino)-2-(4-methoxybenzylsulfanyl)-9-methyl-9H-purine], the GI50 in experiment [1] came to 240 nM; in experiment [2], 410 nM; in experiment [3] it was 260 nM; in experiment [4], 240 nM; in experiment [5] it was 560 nM.
On to `COc1ccc(CSc2nc(N(C)C)c3ncn(C)c3n2)cc1N` [Compound 19, 2-(3-amino-4-methoxybenzylsulfanyl)-6-dimethylamino-9-methyl-9H-purine], for which the GI50 is 320 nM in experiment [1]; 450 nM in experiment [2]; 4040 nM in experiment [3]; 450 nM in experiment [4]; 400 nM in experiment [5].
In the case of `CCc1nc2c(N(C)C)nc(SCc3ccc(OC)c(C#N)c3)nc2n1C` [Compound 69, 2-(3-cyano-4-methoxybenzylsulfanyl)-6-dimethylamino-8-ethyl-9-methyl-9H-purine], the concentration for 50% growth inhibition (GI50) in experiment [1] was 110 nM; in experiment [2], 200 nM; in experiment [3], 150 nM; in experiment [4], 150 nM; in experiment [5] it was 120 nM.
Consider `CCN(C)c1nc(SCc2ccc(OC)c(F)c2)nc2c1ncn2C` [Compound 82, 6-(N-ethyl-N-methylamino)-2-(3-fluoro-4-methoxybenzylsulfanyl)-9-methyl-9H-purine], for which the GI50 in experiment [1] is 110 nM; in experiment [2] it was 300 nM; in experiment [3], 210 nM; in experiment [4] it was 140 nM; in experiment [5], 300 nM.
Turning to `COc1ccc(CSc2nc(N(C)OC)c3ncn(C)c3n2)cc1N` [Compound 145, 2-(3-amino-4-methoxybenzylsulfanyl)-6-(N-methoxy-N-methylamino)-9-methyl-9H-purine], the GI50 in experiment [1] is less than 40 nM; in experiment [2], 190 nM; in experiment [3], 810 nM; in experiment [4], 80 nM; in experiment [5], 130 nM.
On to `CCOc1ccc(CSc2nc(NC)c3ncn(C)c3n2)cc1N` [Compound 107, 2-(3-amino-4-ethoxybenzylsulfanyl)-9-methyl-6-methylamino-9H-purine], for which the GI50 is 30 nM in experiment [1]; 100 nM in experiment [2]; 310 nM in experiment [3]; 70 nM in experiment [4]; 50 nM in experiment [5].
The like results for `CCOc1ccc(CSc2nc(N3CCOCC3)c3nc(CC)n(C)c3n2)cc1F` [Compound 116, 2-(4-ethoxy-3-fluorobenzylsulfanyl)-8-ethyl-9-methyl-6-morpholino-9H-purine] were, in that order, 290 nM, 440 nM, 330 nM, 450 nM and 320 nM.
In the same order, the values of `CNc1nc(SCc2ccc(OC)c(N)c2)nc2c1ncn2C` [Compound 45, 2-(3-amino-4-methoxybenzylsulfanyl)-9-methyl-6-methylamino-9H-purine] are 90 nM, 280 nM, 830 nM, 120 nM and 150 nM.
In the same order, the values of `CNc1nc(SCc2ccc(OC)c(F)c2)nc2c1ncn2C` [Compound 73, 2-(3-fluoro-4-methoxybenzylsulfanyl)-6-methylamino-9-methyl-9H-purine] are less than 40 nM, less than 40 nM, less than 40 nM, less than 40 nM and less than 40 nM.
For `CCc1nc2c(N3CCOCC3)nc(SCc3ccc(OC)c(N)c3)nc2n1CC` [Compound 97, 2-(3-amino-4-methoxybenzylsulfanyl)-8,9-diethyl-6-morpholino-9H-purine], the concentration for 50% growth inhibition (GI50) in experiment [1] worked out at 90 nM; in experiment [2] it was 290 nM; in experiment [3], 300 nM; in experiment [4], 140 nM; in experiment [5], 120 nM.
In the same order, the values of `CCN(C)c1nc(SCc2ccc(OC)c(C#N)c2)nc2c1ncn2C` [Compound 85, 2-(3-cyano-4-methoxybenzylsulfanyl)-6-(N-ethyl-N-methylamino)-9-methyl-9H-purine] are 70 nM, 120 nM, 80 nM, 140 nM and 120 nM.
The like results for `CCc1nc2c(N3CCOCC3)nc(SCc3ccc(OC)c(Br)c3)nc2n1C` [Compound 78, 2-(3-bromo-4-methoxybenzylsulfanyl)-8-ethyl-9-methyl-6-morpholino-9H-purine] were, in that order, 910 nM, 1200 nM, 1100 nM, 1100 nM and 360 nM.
The like results for `COc1ccc(CSc2nc(N3C=COCC3)c3ncn(C)c3n2)cc1` [Compound 147, 6-(2,3-dihydro-[1,4]oxadin-4-yl)-2-(4-methoxybenzylsulfanyl)-9-methyl-9H-purine] were, in that order, 40 nM, 80 nM, 40 nM, 50 nM and 120 nM.
As for `COc1ccc(CSc2nc(N(C)C)c3ncn(C)c3n2)cc1` [Compound 21, 6-dimethylamino-2-(4-methoxybenzylsulfanyl)-9-methyl-9H-purine], the GI50 in experiment [1] was found to be 100 nM; in experiment [2], 340 nM; in experiment [3] it was 140 nM; in experiment [4], 220 nM; in experiment [5] it was 140 nM.
Take `COc1ccc(CSc2nc(N3C=COCC3)c3ncn(C)c3n2)cc1F` [Compound 152, 6-(2,3-dihydro-[1,4]oxadin-4-yl)-2-(3-fluoro-4-methoxybenzylsulfanyl)-9-methyl-9H-purine]: the GI50 in experiment [1], in experiment [2], in experiment [3], in experiment [4] and in experiment [5] was less than 40 nM throughout.
For the compound `CCc1nc2c(N3C=COCC3)nc(SCc3ccc(OC)c(F)c3)nc2n1C` [Compound 157, 6-(2,3-dihydro[1,4]oxadin-4-yl)-8-ethyl-2-(3-fluoro-4-methoxybenzylsulfanyl)-9-methyl-9H-purine], the GI50 in experiment [1] worked out at 40 nM; in experiment [2], 80 nM; in experiment [3], 80 nM; in experiment [4] it was 60 nM; in experiment [5], 90 nM.
As for `CCc1nc2c(N3CCOCC3)nc(SCc3ccc(C)c(F)c3)nc2n1C` [Compound 11, 8-ethyl-2-(3-fluoro-4-methylbenzylsulfanyl)-9-methyl-6-morpholino-9H-purine], the GI50 was 670 nM in experiment [1]; 1490 nM in experiment [2]; 1040 nM in experiment [3]; 1160 nM in experiment [4]; 400 nM in experiment [5].
